Reference: patent US10793521B2, “Crystalline form II of dextral oxiracetam, preparation method therefor and use thereof” (CHONGQING RUNZE PHARMACEUTICAL COMPANY LIMITED, priority 2016, dated 2020)
Entries after “also recorded” stand apart in the source; their conditions may differ.

Assays:
Type in all cases: physicochemical
Solubility in water = experiment: Solubility in water
[1] = Accelerated test for crystalline form stability; conditions: 40° C.±2° C., relative humidity 75%±5%
Experimental: The accelerated test for crystalline form stability was performed in accordance with the provisions relating to the accelerated test of active pharmaceutical ingredients under “Guidelines for the Stability Test of Active Ingredient Pharmaceutical Ingredients and Pharmaceutical Preparations” of Pharmacopoeia 2010 Appendix XIXC. The crystalline form II of dextral oxiracetam was placed in a beaker and the test was carried out in a constant temperature and humidity chamber at a temperature of 40° C.±2° C. and a relative humidity of 75%±5%.

[2] = Dynamic vapor sorption (DVS) test with powder X-ray diffraction characterization
Experimental: The test parameters were given as follows: weighing: Ultra Digital Microbalance SMS Ultra Balance™; flow rate: N2, 200 sccm, System Control Software: DVS-Intrinsic control software ver. 1.0.3.1, Data Analysis Software: Isotherm (ISO) analysis suite. 22.4 mg of sample of crystalline form II of dextral oxiracetam was weighed for the test, dried at RH=0%, the mass was balanced to ensure removal of moisture adsorbed on the surface, then placed on metal sample tray, and dried at 0% RH for 2 h. The test was performed at a constant temperature of 25° C., and the relative humidity (RH %) was controlled to vary cyclically from 0% to 90% to 0% RH with a 10% gradient. The variation of the sample weight with humidity was measured, which was combined with powder X-ray diffraction characterization to observe the effect of humidity on crystalline form transformation of the sample.

**Q.** What does the source list for `NC(=O)CN1C[C@H](O)CC1=O` [dextral oxiracetam]?
**A.** solubility (Solubility in water): ≥ 100 mg/mL; change in crystalline form ([1]; after 2 h): no change; change in crystalline form ([1]; after 10 days): no change; change in crystalline form ([1]; after 15 days): no change; crystal transformation in accelerated stability test ([1]; between 2 h and 15 d): did not undergo crystal transformation; crystalline form of the sample after humidity cycle ([2]; 25° C., relative humidity cycled 0% to 90% to 0% RH with a 10% gradient): still the crystalline form II of dextral oxiracetam; crystal transformation / stability to humidity ([2]; room temperature, relative humidity of 0-95%): do not undergo crystal transformation; also recorded: no crystal transformation occurs
